Experimental data published in PMC4849654, “A High-Throughput Cell-Based Screen Identified a 2-[(E)-2-Phenylvinyl]-8-Quinolinol Core Structure That Activates p53” (PLoS ONE, 2016).

Tests used:
p53 [1] = molecular target: T1, p53 (Homo sapiens, UniProt P04637); assay: Surface plasmon resonance (Biacore) binding to p53; details: SPR, recombinant p53 amine linked to Biacore chip, compound 1 to 25 μM
T1 construct: purchased R&D systems
Description: Free reactive amines were then blocked with ethanolamine.

p53 [2] = molecular target: T2, p53 (Homo sapiens, UniProt P04637, R273C); assay: p53 nuclear localization by immunofluorescence; assay type: cell-based; details: C33a cells, 30 μM, 8 hrs
T2 construct: endogenous in cells; host or cells: C33a
Protocol: C33a cells were plated into chamber slides and treated with 30 μM of compounds 3 or, 4 for 4, or 8 hours. As a control, 30 μM cisplatin was used. The cells were fixed with 2.5% formaldehyde for 30 minutes, followed by permeabilization with 0.01% Triton X100 for 30 minutes. Cells were blocked with 5% goat serum for 30 minutes and stained overnight with anti-p53 (Santa Cruz, antibody FL-303) or anti-phospho-H2A.X (cell signaling) in 1% FCS in PBS at 4°. The following day, the cells were washed with PBS and incubated for 45 minutes with anti-rabbit-FITC and DAPI in 1% FCS in PBS. The cells were washed and mounted with ProLong Gold.

PUMA = PUMA transcription by qRT-PCR; assay type: cell-based; details: 30 μM, 8h
Description: (§1) RNA from C33a and HeLa was isolated by Trizol and reverse transcribed using the first strand synthesis kit from NEB. Primers for p53, GAPDH and PUMA were used for quantitative real-time PCR (qRT-PCR). Primer sequences include: PUMA (forward primer: CTCAACGCACAGTACGAG and reverse primer: […]), FAS (forward primer: TCTGCCATAAGCCCTGT and reverse primer: GTCTGTGTACTCCTTCCCT), p21 (forward primer: […] and reverse primer: […]), and BAX (forward primer: […] and reverse primer: […]). ΔΔCt values were determined for PUMA using GAPDH to normalize data. Bio-rad SYBR green was used for the amplification and detection of the PCR products on an iCycler (Bio-rad).

p21, BAX and FAS = assay: p53 target gene expression (p21, BAX, FAS) by qRT-PCR; assay type: cell-based; details: HeLa cells, 8h
Description: as §1

HeLa cells = assay: Cell viability (Cell Titer Glo), HeLa; assay type: cell-based
Protocol: (§2) For the viability assays, 20,000 C33a, HeLa, or siHA cells were plated in white 96 well flat bottom plates. The cells were treated with compounds at concentrations from 0.5 to 30 μM for 48 hrs. After incubation, Cell Titer Glo (Promega) was added to the cells and luminescence read in a Tecan II plate reader. For annexin V and PI staining, 500,000 C33a cells were treated with inhibitor for 24 hrs. The cells were stained with Annexin V-FITC and PI according to eBioscience manufacturer’s instructions and analyzed by flow cytometry.

C33a cells [3] = assay: Cell viability (Cell Titer Glo), C33a; assay type: cell-based
Protocol: as §2

siHA cells = assay: Cell viability (Cell Titer Glo), siHA; assay type: cell-based; details: 48h
Protocol: as §2

MCF7 cells = assay: Cell viability, MCF7; assay type: cell-based; details: MCF7, wild type p53
HCT116 cells = assay: Cell viability, HCT116 (wtHCT116 and p53-null mutHCT116); assay type: cell-based
SQ20B cells = assay: Cell viability, SQ20B; assay type: cell-based; details: mutant p53
C33a cells [4] = assay: Cell viability after p53 siRNA knockdown; assay type: cell-based; details: p53 siRNA vs scrambled, 10 μM, 48 hrs
Protocol: C33a cells were transfected with 100 pmol siRNA for p53 (Dharmacon, L-003329-00-0005) or AllStar control (Qiagen) using lipofectamine2000 according to manufacturer’s instructions. The cells were incubated for 24 hrs and then split and incubated with 10 μM compounds. Cell viability was measured after 48 hours by Cell Titer Glo. Efficiency of knockdown was determined by quantitative RT-PCR using SYBR green.

C33a cells [5] = assay: Annexin V/PI staining by flow cytometry; assay type: cell-based
Protocol: as §2

[6] = test system: proteasome trypsin-like activity; assay: Proteasome-Glo trypsin-like activity; assay type: cell-based; details: C33a cells, 2 hrs, 10 μM or 30 μM
p73 = molecular target: T3, p73 (Homo sapiens, UniProt O15350); assay: p73 nuclear accumulation by Western analysis; assay type: cell-based; details: mutHCT116 cells, 6h
T3 construct: endogenous in cells; host or cells: HCT116 (p53-null mutHCT116 and wtHCT116)
T3 sequence (O15350 1-636): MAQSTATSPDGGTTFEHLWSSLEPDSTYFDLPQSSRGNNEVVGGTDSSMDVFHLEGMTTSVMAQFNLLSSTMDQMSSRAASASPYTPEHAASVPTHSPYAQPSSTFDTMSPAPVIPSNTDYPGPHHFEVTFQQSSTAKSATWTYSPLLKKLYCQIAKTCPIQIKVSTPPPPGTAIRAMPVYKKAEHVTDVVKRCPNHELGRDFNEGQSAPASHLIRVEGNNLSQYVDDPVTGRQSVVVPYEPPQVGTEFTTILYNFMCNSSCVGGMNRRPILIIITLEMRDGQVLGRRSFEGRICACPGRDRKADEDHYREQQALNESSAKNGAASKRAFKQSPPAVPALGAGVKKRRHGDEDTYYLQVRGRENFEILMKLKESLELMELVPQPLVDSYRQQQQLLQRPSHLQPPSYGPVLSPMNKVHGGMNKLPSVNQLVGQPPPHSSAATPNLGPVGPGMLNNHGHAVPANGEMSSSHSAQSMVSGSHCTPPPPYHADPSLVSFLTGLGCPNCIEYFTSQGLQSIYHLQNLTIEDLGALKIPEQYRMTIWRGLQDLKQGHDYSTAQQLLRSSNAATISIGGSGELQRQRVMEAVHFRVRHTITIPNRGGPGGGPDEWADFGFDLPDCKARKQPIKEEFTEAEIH

**Q.** With `COc1ccc(/C=C/c2ccc3cccc(O)c3n2)cc1OC` [compound 4] as the compound, how does the Kd (p53 [1]) read?
**A.** The Kd was 0.2 ± 0.052 µM.

**Q.** And the “p53 nuclear accumulation, % of cell nuclei” value (p53 [2])?
**A.** Its value is 79.5±12.7 % of cell nuclei.

**Q.** And the PUMA transcription upregulation (PUMA; C33a cells)?
**A.** Its PUMA transcription upregulation is 2.76±0.29 fold.

**Q.** What about the PUMA transcription upregulation (PUMA; HeLa cells) of the same compound?
**A.** Its PUMA transcription upregulation is 2.04±0.85 fold.

**Q.** What about the “expression of p21, BAX and FAS” value (p21, BAX and FAS) of the same compound?
**A.** The value was “induced expression”.

**Q.** And the “cell viability (Fig 5D)” value (HeLa cells; HeLa)?
**A.** Its value is “decreased viability”.

**Q.** And the IC50 (HeLa cells; HeLa cells, 48 hrs, Cell Titer Glo)?
**A.** The IC50 was 4.5 µM.

**Q.** And the “cell viability at 30 μM” value (HeLa cells; HeLa, 30 μM, 48h)?
**A.** Its value is “decreased viability”.

**Q.** What about the IC50 (C33a cells [3]; C33a cells, 48 hrs, Cell Titer Glo) of the same compound?
**A.** Its IC50 is 2.3 µM.

**Q.** And the “cell viability at 30 μM” value (C33a cells [3]; C33a, 30 μM, 48h)?
**A.** Its value is “decreased viability”.

**Q.** What about the “cell viability (Fig 5D)” value (C33a cells [3]; C33a, mutant p53) of the same compound?
**A.** Its value is “decreased viability”.

**Q.** What about the “cell viability at 30 μM” value (siHA cells) of the same compound?
**A.** The value was “decreased viability”.

**Q.** And the “cell viability (Fig 5D)” value (MCF7 cells)?
**A.** Its value is “decreased viability”.

**Q.** And the “viability of mutHCT116 cells relative to wtHCT116 cells” value (HCT116 cells; 10 μM, percent viability mutHCT116 divided by wtHCT116)?
**A.** Its value is 2.5±0.5 fold.

**Q.** And the “cell viability (Fig 5D)” value (HCT116 cells; HCT116, wild type p53)?
**A.** Its value is “decreased viability”.

**Q.** And the “cell viability (Fig 5D)” value (SQ20B cells)?
**A.** Its value is “decreased viability”.

**Q.** What about the “effect of p53 gene knockdown on C33a sensitivity to compound” value (C33a cells [4]) of the same compound?
**A.** The value was “significantly reversed”.

**Q.** What about the “apoptotic and necrotic cells” value (C33a cells [5]) of the same compound?
**A.** Its value is “increased both the number of apoptotic and necrotic cells”.

**Q.** And the trypsin-like proteasome activity [6]?
**A.** Its trypsin-like proteasome activity is “did not significantly reduce”.

**Q.** What about the p73 nuclear accumulation (p73) of the same compound?
**A.** The p73 nuclear accumulation was “did not increase p73 nuclear accumulation”.
